Values quoted from earlier work as cited in patent US11823773B2, “Nant cancer vaccine strategies” (Nant Holdings IP, LLC, priority 2018, dated 2023).

CC(C)(C)c1nc(-c2cccc(NS(=O)(=O)c3c(F)cccc3F)c2F)c(-c2ccnc(N)n2)s1 [Dabrafenib]
PFS compared to dacarbazine (advanced melanoma; human, in vivo): improvement in PFS

O=C(c1ccc(F)c(F)c1Nc1ccc(I)cc1F)N1CC(O)([C@@H]2CCCCN2)C1 [cobimetinib]
PFS over vemurafenib treatment alone (advanced melanoma; in combination with vemurafenib): significant increase in PFS

rituximab: anti-CD20 antibody
response rate to single agent retreatment (CD20-positive NHL; rituximab refractory (RR) patients, reasonable estimate, no trial data reported): < 5%
patients responding to retreatment (CD20-positive NHL; rituximab sensitive (RS) patients): approximately 40%
